The text below walks through data of US7618975B2, “4-arylamino-quinazolines and analogs as activators of caspases and inducers of apoptosis and the use thereof” (Myriad Pharmaceuticals, Inc., priority 2003, dated 2009).

For this assay, the system named is T-47D cells. Kind of assay: Caspase cascade activation (N-(Ac-DEVD)-N′-ethoxycarbonyl-R110 fluorogenic substrate) in T-47D cells. On Caspase activity Ratio T-47D (24 hr): test concentration or dose not given here. On Caspase activity Ratio T-47D (48 hr): test concentration or dose not given here. In kind it is cell-based, Human. As to conditions: T-47D; for Ratio T-47D (48 hr): benzohydrazide analogs table; for Caspase activity Ratio T-47D (24 hr) / Caspase activity Ratio T-47D (48 hr): ratio of net RFU to control.

Take `CN(NC(=O)c1ccccc1F)c1nc(C(F)(F)F)nc2ccccc12` [2-fluoro-N′-(2-(trifluoromethyl)quinazolin-4-yl)-N′-methylbenzohydrazide]: the “Ratio T-47D (48 hr)” value is 13.7. Regarding `CSc1nc(N(C)NC(=O)c2ccc(Cl)cc2)c2ccccc2n1` [4-chloro-N′-methyl-N′-(2-(methylthio)quinazolin-4-yl)benzohydrazide], the “Ratio T-47D (48 hr)” value was 14.4. Still for that read-out and setting: as for `CSc1nc(N(C)NC(=O)c2ccc(F)cc2)c2ccccc2n1` [4-fluoro-N′-methyl-N′-(2-(methylthio)quinazolin-4-yl)benzohydrazide], the figure is 13.8. Turning to `CN(c1ccc(Cl)cc1)c1nc(Cl)nc2ccccc12` [Example 3, (2-Chloro-quinazolin-4-yl)-(4-chloro-phenyl)-methyl-amine], the “Caspase activity Ratio T-47D (24 hr)” value turned out to be 8.1. Regarding `CN(c1ccc([N+](=O)[O-])cc1)c1nc(Cl)nc2ccccc12` [Example 4, (2-Chloro-quinazolin-4-yl)-(4-nitro-phenyl)-methyl-amine], the “Caspase activity Ratio T-47D (24 hr)” value came to 7.1. On the same count and under the same terms, as for `CN(c1ccc(OC(F)(F)F)cc1)c1nc(Cl)nc2ccccc12` [Example 5, (2-Chloro-quinazolin-4-yl)-(4-trifluoromethoxy-phenyl)-methyl-amine], the figure is 10.3. Take `Cc1ccc(Nc2nc(Cl)nc3ccccc23)cc1` [Example 8, (2-Chloro-quinazolin-4-yl)-(4-methyl-phenyl)-amine]: the “Caspase activity Ratio T-47D (24 hr)” value was found to be 1.0. Regarding `COc1ccc2c(ccn2-c2nc(Cl)nc3ccccc23)c1` [Example 9, 2-Chloro-4-(5-methoxyindol-1-yl)quinazoline], the “Caspase activity Ratio T-47D (48 hr)” value was 1.8. The same measure, in the same setting: as for `COc1ccc(N(C)c2nc(NO)nc3ccccc23)cc1` [Example 10, N^2-Hydroxyl-N^4-(4-methoxy-phenyl)-N^4-methyl-quinazoline-2,4-diamine], the figure is 12.8.

Consider `COc1ccc(N(C)c2nc(NCCO)nc3ccccc23)cc1` [Example 11, N^2-(2-Hydroxylethyl)-N^4-(4-methoxy-phenyl)-N^4-methyl-quinazoline-2,4-diamine], for which the “Caspase activity Ratio T-47D (24 hr)” value came out at 9.0 and the “Caspase activity Ratio T-47D (48 hr)” value worked out at 12.5. On to `COc1ccc(N(C)c2nc(NCCN3CCOCC3)nc3ccccc23)cc1` [Example 14, N^4-(4-Methoxy-phenyl)-N^4-methyl-N^2-(2-morpholin-4-yl-ethyl)-quinazoline-2,4-diamine], for which the “Caspase activity Ratio T-47D (24 hr)” value was 9.7 and the “Caspase activity Ratio T-47D (48 hr)” value is recorded as 12.3. With `COc1ccc(N(C)c2nc(N3CCOCC3)nc3ccccc23)cc1` [Example 15], the “Caspase activity Ratio T-47D (24 hr)” value is recorded as 5.7 and the “Caspase activity Ratio T-47D (48 hr)” value was determined as 11.5. For the compound `CC(C)=CCC/C(C)=C/CNc1nc(N(C)c2ccc(C)cc2)c2ccccc2n1` [Example 16, N^2-(3,7-Dimethyl-octa-2,6-dienyl)-N^4-(4-methyl-phenyl)-N^4-methyl-quinazoline-2,4-diamine], the “Caspase activity Ratio T-47D (24 hr)” value amounted to 7.6. Consider `COc1ccc(N(C)c2nc(N)nc3[nH]cnc23)cc1` [Example 17, N^6-(4-Methoxy-phenyl)-N-6-methyl-9H-purine-2,6-diamine], for which the “Caspase activity Ratio T-47D (24 hr)” value was found to be 3.0. With `CN(c1ccccc1)c1nc(N(C)c2ccccc2)c2ccccc2n1` [Example 18, N^2,N^4-Dimethyl-N^2,N^4-diphenyl-quinazoline-2,4-diamine], the “Caspase activity Ratio T-47D (24 hr)” value is on record as 1.0 and the “Caspase activity Ratio T-47D (48 hr)” value amounted to 1.0. For the compound `CN(c1ccc(Cl)cc1)c1nc(N(C)c2ccc(Cl)cc2)c2ccccc2n1` [Example 19, N^2,N^4-Bis(4-chloro-phenyl)-N^2,N^4-dimethyl-quinazoline-2,4-diamine], the “Caspase activity Ratio T-47D (24 hr)” value came out at 1.0 and the “Caspase activity Ratio T-47D (48 hr)” value came out at 1.0. As for `COc1ccc(Nc2nc(Cl)nc3cc(OC)c(OC)cc23)cc1` [Example 21, (2-Chloro-6,7-dimethoxyquinazolin-4-yl)-(4-methoxy-phenyl)-amine], the “Caspase activity Ratio T-47D (24 hr)” value came to 1.0 and the “Caspase activity Ratio T-47D (48 hr)” value turned out to be 1.0.

Turning to `COc1cc2nc(Cl)nc(N(C)c3ccc(C)cc3)c2cc1OC` [Example 22, (2-Chloro-6,7-dimethoxyquinazolin-4-yl)-(4-methyl-phenyl)-methyl-amine], the “Caspase activity Ratio T-47D (24 hr)” value was 1.0 and the “Caspase activity Ratio T-47D (48 hr)” value amounted to 1.0. Turning to `COc1ccc(N(C)c2nc(NCCN3CCOCC3)nc3cc(OC)c(OC)cc23)cc1` [Example 23, 6,7-Dimethoxy-N^4-(4-methoxy-phenyl)-N^4-methyl-N^2-(2-morpholin-4-yl-ethyl)-quinazoline-2,4-diamine], the “Caspase activity Ratio T-47D (24 hr)” value is on record as 1.0 and the “Caspase activity Ratio T-47D (48 hr)” value worked out at 1.0. For the compound `COc1ccc(N(C)c2nc(NC/C=C(\C)CCC=C(C)C)nc3cc(OC)c(OC)cc23)cc1` [Example 24, 6,7-Dimethoxy-N^2-(3,7-dimethyl-octa-2,6-dienyl)-N^4-(4-methoxy-phenyl)-N^4-methyl-quinazoline-2,4-diamine], the “Caspase activity Ratio T-47D (24 hr)” value is given as 1.0 and the “Caspase activity Ratio T-47D (48 hr)” value was 2.4. Regarding `COc1ccc(CN(C)c2nc(Cl)nc3ccccc23)cc1` [Example 26, (2-Chloro-quinazolin-4-yl)-(4-methoxy-benzyl)-methyl-amine], the “Caspase activity Ratio T-47D (48 hr)” value turned out to be 15.7. Take `Clc1nc(Nc2ccncc2)c2ccccc2n1` [Example 27, (2-Chloro-quinazolin-4-yl)-pyridin-4-yl-amine]: the “Caspase activity Ratio T-47D (48 hr)” value is on record as 1.0. Turning to `COc1ccc(Nc2nc(Cl)nc3ccccc23)cn1` [Example 28, (2-Chloro-quinazolin-4-yl)-(6-methoxy-pyridin-3-yl)-amine], the “Caspase activity Ratio T-47D (24 hr)” value came to 1.0 and the “Caspase activity Ratio T-47D (48 hr)” value stood at 1.0. Consider `COc1cccc(Nc2nc(Cl)nc3ccccc23)c1OC` [Example 29, (2-Chloro-quinazolin-4-yl)-(2,3-dimethoxy-phenyl)-amine], for which the “Caspase activity Ratio T-47D (48 hr)” value was found to be 1.0. In the case of `COc1ccc(Nc2nc(Cl)nc3ccccc23)c(OC)c1` [Example 30, (2-Chloro-quinazolin-4-yl)-(2,4-dimethoxy-phenyl)-amine], the “Caspase activity Ratio T-47D (48 hr)” value was determined as 1.0.

As to `COc1cccc(Nc2nc(Cl)nc3ccccc23)c1` [Example 32, (2-Chloro-quinazolin-4-yl)-(3-methoxy-phenyl)-amine], the “Caspase activity Ratio T-47D (48 hr)” value stood at 1.0. Turning to `COc1ccccc1Nc1nc(Cl)nc2ccccc12` [Example 33, (2-Chloro-quinazolin-4-yl)-(2-methoxy-phenyl)-amine], the “Caspase activity Ratio T-47D (48 hr)” value is listed as 1.0. For `COc1ccc(N(c2nc(Cl)nc3ccccc23)C(C)C)cc1` [Example 37, (2-Chloro-quinazolin-4-yl)-isopropyl-(4-methoxy-phenyl)-amine], the “Caspase activity Ratio T-47D (24 hr)” value is 3.3.

With `COc1ccc(N(c2nc(Cl)nc3ccccc23)C2CCCCC2)cc1` [Example 38, (2-Chloro-quinazolin-4-yl)-cyclohexyl-(4-methoxy-phenyl)-amine], the “Caspase activity Ratio T-47D (24 hr)” value was found to be 3.4.

Take `COc1cccc(N(C)c2nc(Cl)nc3ccccc23)c1OC` [Example 39, (2-Chloro-quinazolin-4-yl)-(2,3-dimethoxy-phenyl)-methyl-amine]: the “Caspase activity Ratio T-47D (24 hr)” value came out at 4.5.
